Consider nine compounds from US6514911B1, “Substituted oxadiazines useful as pesticides” (Uniroyal Chemical Company, Inc., priority 2002, dated 2003).

What all share (type): in vivo
Test [1] has as its system green foxtail (Setaria virdis (L.) Beauv.) (GF). Description: Preemergence herbicide test, soil drench, green foxtail. Conditions: 10 lbs/A (11.2 kg/ha) soil drench, two weeks after treatment, vs untreated checks; for pest or weed control at 11208.5 g/ha: Setaria, 336 h, read-out: Percent Weed Control GF. The method, then:
To illustrate the effectiveness of the previously described substituted oxadiazines of this invention as preemergence herbicides, 300 mg of the chemical was dissolved in a composition comprising 10 mL acetone to which 30 mg of tile emulsifying agent, ethoxylated sorbitan monolaurate, was added. The solution was diluted to 100 mL with distilled water. Ten milliliters of this 3000 ppm solution was diluted to 250 ppm with distilled water. The chemical was applied at the rate of 10 pounds/acre (11.2 kg/ha) by drenchings 46 mL of the 250 ppm solution on the surface of soil in 41⁄2 inch (11.25 cm) plastic pots wherein seeds of the following weeds had been planted: green foxtail (Setaria […].) Beauv.) (GF). The percent control of the weeds compared to untreated checks was determined two weeks after treatment. TABLE 1 summarizes the results achieved with compounds formulated as indicated above, and the data clearly indicate the good to excellent herbicidal efficacy of compositions of this invention.

Test [2] concerns tall morningglory (Ipomoea purpurea (L.) Roth) (TM). Description: Preemergence herbicide test, soil drench, tall morningglory. Conditions: 10 lbs/A (11.2 kg/ha) soil drench, two weeks after treatment, vs untreated checks; for pest or weed control at 11208.5 g/ha: Ipomoea, 336 h, read-out: Percent Weed Control TM. On the procedure: (§1) To illustrate the effectiveness of the previously described substituted oxadiazines of this invention as preemergence herbicides, 300 mg of the chemical was dissolved in a composition comprising 10 mL acetone to which 30 mg of tile emulsifying agent, ethoxylated sorbitan monolaurate, was added. The solution was diluted to 100 mL with distilled water. Ten milliliters of this 3000 ppm solution was diluted to 250 ppm with distilled water. The chemical was applied at the rate of 10 pounds/acre (11.2 kg/ha) by drenchings 46 mL of the 250 ppm solution on the surface of soil in 4½ inch (11.25 cm) plastic pots wherein seeds of the following weeds had been planted: tall morningglory (Ipomoea purpurea (L.) Roth) (TM), The percent control of the weeds compared to untreated checks was determined two weeks after treatment. TABLE 1 summarizes the results achieved with compounds formulated as indicated above, and the data clearly indicate the good to excellent herbicidal efficacy of compositions of this invention.

The subject of test [3] is jimsonweed (Datura stramonium L.) (JW). Description: Preemergence herbicide test, soil drench, jimsonweed. Conditions: 10 lbs/A (11.2 kg/ha) soil drench, two weeks after treatment, vs untreated checks. On the procedure: as §1, with “jimsonweed (Datura stramonium L.) (JW),” for “tall morningglory (Ipomoea purpurea (L.) Roth) (TM),”
For test [4], the system named is velvetleaf (Abutilon theophrasti Medik.) (VL). Description: Preemergence herbicide test, soil drench, velvetleaf. The conditions noted are these: 10 lbs/A (11.2 kg/ha) soil drench, two weeks after treatment, vs untreated checks; for pest or weed control at 11208.5 g/ha: Abutilon theophrasti, 336 h, read-out: Percent Weed Control VL. On the procedure:
as §1, with “velvetleaf (Abutilon theophrasti Medik.) (VL),” for “tall morningglory (Ipomoea purpurea (L.) Roth) (TM),”

In test [5] the test system is switchgrass (Panicum virgahim L.) (SG). Description: Preemergence herbicide test, soil drench, switchgrass. Conditions: 10 lbs/A (11.2 kg/ha) soil drench, two weeks after treatment, vs untreated checks; for pest or weed control at 11208.5 g/ha: Panicum, 336 h, read-out: Percent Weed Control SG. The method, then:
as §1, with “planted:” for “planted: tall morningglory (Ipomoea purpurea (L.) Roth) (TM), The percent control of the weeds compared to untreated checks was determined two weeks after treatment. TABLE 1 summarizes the results achieved with compounds formulated as indicated above, and the data clearly indicate the good to excellent herbicidal efficacy of compositions of this invention.”
switchgrass (Panicum virgahim L.) (SG),
(§2) The percent control of the weeds compared to untreated checks was determined two weeks after treatment. TABLE 1 summarizes the results achieved with compounds formulated as indicated above, and the data clearly indicate the good to excellent herbicidal efficacy of compositions of this invention.

Test [6] relates to barnyardgrass (Echinochloa crus-galli (L.) Beauv.) (BG). Description: Preemergence herbicide test, soil drench, barnyardgrass. The conditions noted are these: 10 lbs/A (11.2 kg/ha) soil drench, two weeks after treatment, vs untreated checks; for pest or weed control at 11208.5 g/ha: Echinochloa crus-galli, 336 h, read-out: Percent Weed Control BG. The method, then:
as §1, with “barnyardgrass (Echinochloa crus-galli” for “tall morningglory (Ipomoea purpurea”, “Beauv.) (BG), and” for “Roth) (TM),”

Test [7] has as its system prickly sida (Sida spinosa L.) (PS). Description: Preemergence herbicide test, soil drench, prickly sida. The conditions noted are these: 10 lbs/A (11.2 kg/ha) soil drench, two weeks after treatment, vs untreated checks; for pest or weed control at 11208.5 g/ha: Sida spinosa, 336 h, read-out: Percent Weed Control PS. On the procedure: To illustrate the effectiveness of the previously described substituted oxadiazines of this invention as preemergence herbicides, 300 mg of the chemical was dissolved in a composition comprising 10 mL acetone to which 30 mg of tile emulsifying agent, ethoxylated sorbitan monolaurate, was added. The solution was diluted to 100 mL with distilled water. Ten milliliters of this 3000 ppm solution was diluted to 250 ppm with distilled water. […]
prickly sida (Sida spinosa L.) (PS),
as §2

`FC(F)(F)C1=NC(C(F)(F)F)(C(F)(F)F)N=C(c2ccc(Cl)cc2)O1` [Compound 5, 2-(4-chlorophenyl)-4,4,6-tris(trifluoromethyl)-4H-1,3,5-oxadiazine]: the pest or weed control at 11208.5 g/ha in test [1], in test [2], in test [4], in test [5] and in test [6] was 100% throughout. Also, the “Percent Weed Control JW” value in test [3] amounted to 100%.
As to `FC(F)(F)c1ccc(C2=NC(C(F)(F)F)(C(F)(F)F)N=C(C(F)(F)C(F)(F)F)O2)cc1` [Compound 15], the “Percent Weed Control GF” value in test [1] is on record as 100%. Also, in test [2], the “Percent Weed Control TM” value is 100%. For the same compound, the “Percent Weed Control PS” value in test [7] stood at 100%. The “Percent Weed Control VL” value in test [4] is 100%. Besides, the “Percent Weed Control SG” value in test [5] stood at 100%. Besides, the “Percent Weed Control BG” value in test [6] came to 100%.
Take `Fc1ccc(C2=NC(C(F)(F)F)(C(F)(F)F)N=C(C(F)(F)C(F)(F)F)O2)cc1` [Compound 17, 2-(4-fluorophenyl)-6-(pentafluoroethyl)-4,4-bis(trifluoromethyl)-4H-1,3,5-oxadiazine]: the pest or weed control at 11208.5 g/ha in test [1] was determined as 50%; in test [2], 100%; in test [7], 100%; in test [4], 100%; in test [5], 50%; in test [6] it was 100%.
For `FC(F)(F)c1cc(C2=NC(C(F)(F)F)(C(F)(F)F)N=C(C(F)(F)C(F)(F)F)O2)cc(C(F)(F)F)c1` [Compound 18, 2-{3,5-bis(trifluoromethyl)phenyl}-6-(pentafluoroethyl)-4,4-bis(trifluoromethyl)-4H-1,3,5-oxadiazine], the pest or weed control at 11208.5 g/ha in test [1], in test [2], in test [7], in test [4], in test [5] and in test [6] was 100% each time.
Turning to `Fc1cc(F)cc(C2=NC(C(F)(F)F)(C(F)(F)F)N=C(C(F)(F)C(F)(F)F)O2)c1` [Compound 19, 2-(3,5-difluorophenyl)-6-(pentafluoroethyl)-4,4-bis(trifluoromethyl)-4H-1,3,5-oxadiazine], the pest or weed control at 11208.5 g/ha in test [1], in test [2], in test [7], in test [4], in test [5] and in test [6] was 100% each time.
`FC(F)(F)C(F)(F)C(F)(F)C1=NC(C(F)(F)F)(C(F)(F)F)N=C(c2ccc(Br)cc2)O1` [Compound 27, 2-(4-bromophenyl)-6-(heptafluoropropyl)-4,4-bis(trifluoromethyl)-4H-1,3,5-oxadiazine]: the pest or weed control at 11208.5 g/ha in test [1] was found to be 0%; in test [2] it was 95%; in test [7] it was 100%; in test [4], 100%; in test [5] it was 0%; in test [6], 0%.
As for `Fc1ccc(C2=NC(C(F)(F)F)(C(F)(F)F)N=C(C(F)(F)C(F)(F)C(F)(F)F)O2)cc1` [Compound 28, 2-(4-fluorophenyl)-6-(heptafluoropropyl)-4,4-bis(trifluoromethyl)-4H-1,3,5-oxadiazine], the pest or weed control at 11208.5 g/ha in test [1] worked out at 0%; in test [2], 100%; in test [7], 100%; in test [4] it was 100%; in test [5], 0%; in test [6], 0%.
Take `FC(F)(F)c1cccc(C2=NC(C(F)(F)F)(C(F)(F)F)N=C(C(F)(F)C(F)(F)C(F)(F)F)O2)c1` [Compound 29, 2-(heptafluoropropyl)-4,4-bis(trifluoromethyl)-6-{(3-trifluoromethyl)phenyl}-4H-1,3,5-oxadiazine]: in test [1], the “Percent Weed Control GF” value is given as 100%. In addition, the “Percent Weed Control TM” value in test [2] was determined as 100%. Besides, the “Percent Weed Control PS” value in test [7] stood at 100%. Further, in test [4], the “Percent Weed Control VL” value is 100%. Moreover, in test [5], the “Percent Weed Control SG” value is 100%. For the same compound, the “Percent Weed Control BG” value in test [6] worked out at 100%.
As to `FC(F)(F)c1ccc(C2=NC(C(F)(F)F)(C(F)(F)F)N=C(C(F)(F)C(F)(F)C(F)(F)F)O2)cc1` [Compound 30, 2-(heptafluoropropyl)-4,4-bis(trifluoromethyl)-6-{(4-trifluoromethyl)phenyl}-4H-1,3,5-oxadiazine], the “Percent Weed Control GF” value in test [1] was determined as 100%. Further, in test [2], the “Percent Weed Control TM” value came to 100%. Further, the “Percent Weed Control PS” value in test [7] is reported as 100%. The “Percent Weed Control VL” value in test [4] is listed as 100%. Also, the “Percent Weed Control SG” value in test [5] was 100%. For the same compound, the “Percent Weed Control BG” value in test [6] was 100%.
